From publication PMC11945486, “TAS1R2/TAS1R3 Single-Nucleotide Polymorphisms Affect Sweet Taste Receptor Activation by Sweeteners: The SWEET Project” (Nutrients, 2025)
No end group written: not given here.

Target: T1, human TAS1R2-R838K/TAS1R3-WT (Homo sapiens, UniProt Q7RTX0+Q8TE23, R838K)
T1 construct: expressed in transfected cells; host or cells: HEK293T-Gα16gust44
T1 sequence (Q8TE23 20-839 R838K): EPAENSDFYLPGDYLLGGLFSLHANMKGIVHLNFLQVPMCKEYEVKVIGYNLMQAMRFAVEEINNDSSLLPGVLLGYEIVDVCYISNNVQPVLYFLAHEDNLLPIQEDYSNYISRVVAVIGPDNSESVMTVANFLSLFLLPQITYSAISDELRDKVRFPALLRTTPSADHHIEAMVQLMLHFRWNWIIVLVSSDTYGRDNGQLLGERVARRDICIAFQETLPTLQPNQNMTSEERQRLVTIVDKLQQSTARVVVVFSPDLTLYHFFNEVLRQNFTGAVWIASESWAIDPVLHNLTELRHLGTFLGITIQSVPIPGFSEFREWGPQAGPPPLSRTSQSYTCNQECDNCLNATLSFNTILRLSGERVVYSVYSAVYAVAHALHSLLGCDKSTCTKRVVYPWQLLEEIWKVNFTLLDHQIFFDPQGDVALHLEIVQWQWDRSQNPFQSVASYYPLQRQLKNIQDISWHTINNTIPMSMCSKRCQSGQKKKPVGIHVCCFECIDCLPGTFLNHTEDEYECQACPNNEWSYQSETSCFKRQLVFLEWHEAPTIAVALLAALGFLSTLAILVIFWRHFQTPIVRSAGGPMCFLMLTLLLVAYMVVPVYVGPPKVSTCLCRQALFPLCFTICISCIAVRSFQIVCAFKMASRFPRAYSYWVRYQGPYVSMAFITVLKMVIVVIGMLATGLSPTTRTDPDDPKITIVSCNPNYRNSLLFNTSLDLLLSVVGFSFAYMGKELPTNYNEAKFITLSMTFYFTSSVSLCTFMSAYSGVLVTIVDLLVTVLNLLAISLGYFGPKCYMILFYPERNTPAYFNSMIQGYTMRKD
T1 sequence (Q7RTX0 21-852): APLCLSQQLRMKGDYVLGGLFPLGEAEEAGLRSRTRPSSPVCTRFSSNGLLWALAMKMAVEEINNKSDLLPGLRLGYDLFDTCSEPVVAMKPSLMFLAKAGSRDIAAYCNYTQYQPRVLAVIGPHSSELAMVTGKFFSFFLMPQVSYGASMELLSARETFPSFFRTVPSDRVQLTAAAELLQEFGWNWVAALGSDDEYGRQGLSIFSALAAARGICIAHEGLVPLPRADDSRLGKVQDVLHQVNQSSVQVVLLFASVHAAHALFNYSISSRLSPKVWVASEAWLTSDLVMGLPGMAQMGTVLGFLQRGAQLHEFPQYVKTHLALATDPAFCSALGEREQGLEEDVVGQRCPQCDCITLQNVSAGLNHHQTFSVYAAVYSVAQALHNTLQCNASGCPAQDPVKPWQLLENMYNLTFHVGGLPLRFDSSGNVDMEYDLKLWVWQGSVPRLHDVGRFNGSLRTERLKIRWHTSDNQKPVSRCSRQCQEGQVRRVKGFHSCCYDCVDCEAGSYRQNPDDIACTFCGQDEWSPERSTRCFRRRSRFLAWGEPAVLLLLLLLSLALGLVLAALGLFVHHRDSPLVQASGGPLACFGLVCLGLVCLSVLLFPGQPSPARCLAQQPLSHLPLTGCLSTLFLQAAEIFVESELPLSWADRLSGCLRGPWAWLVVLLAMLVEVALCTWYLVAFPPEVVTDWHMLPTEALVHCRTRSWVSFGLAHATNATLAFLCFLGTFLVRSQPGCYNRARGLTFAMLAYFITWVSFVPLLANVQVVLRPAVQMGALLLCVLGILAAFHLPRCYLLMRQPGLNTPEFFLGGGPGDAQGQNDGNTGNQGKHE
Assay: Calcium mobilisation assay, TAS1R2 variant R838K with TAS1R3-WT
Assay type: cell-based
Conditions: for Max ΔF/F0: maximal signal amplitude
From the text: The coding sequences for TAS1R2 and TAS1R3 were commercially synthesised, and the human codon was optimised for expression in human cells. The coding sequences of human TAS1R2 and TAS1R3 were subcloned and inserted into the mammalian expression vectors pcDNA6/myc-HisA and pcDNA4/myc-HisA (Invitrogen; Thermo Fisher Scientific; Illkirch, France) between the EcoRI and NotI restriction sites, generating the plasmids pcDNA6-TAS1R2 and pcDNA4-TAS1R3, respectively. To increase protein expression in mammalian cells, an upstream start codon was used, which was a sequence called MAX, corresponding to the QBI SP163 element also described in pcDNA4-HisMax (Invitrogen; Thermo Fisher Scientific; Illkirch, France). To measure the expression level of the receptor by immunohistochemistry, we used the FLAG sequence ([…]) in the C-terminal position, which encodes the FLAG tag epitope. SNP variants of TAS1R2 and TAS1R3 were constructed based on […], respectively, using site-directed mutagenesis (Genewiz; Leipzig, Germany).
The HEK293T cells were kindly provided by Jay P. Slack (Givaudan Flavors Corporation; Cincinnati, OH, USA). HEK293T cells stably transfected with Gα16gust44 [43, 67] were seeded in poly-D-lysine-coated clear-bottom black 96-well plates (0.35 × 10^5 cells/well) in high-glucose DMEM supplemented with 2 mM GlutaMAX, 10% dialysed foetal bovine serum with penicillin/streptomycin and G418 (400 μg/mL) at 37 °C and 6.3% CO2 in a humidified atmosphere as previously reported. […] As a negative control, HEK293T cells were mock-transfected with the empty expression vector. After a further 24 h of incubation, the HEK293T cells were washed with C1 buffer (130 mM NaCl, 5 mM KCl, 10 mM HEPES pH 7.4 and 2 mM CaCl2). The 96-well plates containing the cells were then stimulated with sweet-tasting compounds. […] Different concentration ranges were tested depending on the sweet compound injected. The Ca^2+ changes were expressed as fractional changes in fluorescent light intensity: ΔF/F = (F − F0)/F0, where F was the fluorescent light intensity at each point, and F0 was the value of emitted fluorescent light prior to stimulus application. To calculate dose–response relationships, the changes in fluorescence upon stimulus application were averaged, mock-subtracted and baseline-corrected. The dose–response data obtained were adjusted using a 4-parameter logistic equation. The half-maximal effective concentrations (EC50 values) and maximal signal amplitudes were calculated using SigmaPlot software (version 15.0) (Systat Software; San Jose, CA, USA).
For in vitro calcium mobilisation assay performed on hTAS1R2-SNPs, hTAS1R3-SNPs and mTAS1R3-I60T, 6 to 7 concentrations were tested for each sweet compound, plus buffer alone. All concentration–receptor combinations were measured in duplicate, and each experiment was repeated at least 4 times (8 wells/concentration). Results were expressed for each concentration as ΔF/F mean ± SEM and represented as dose–response curves.

Molecule	EC50 [µM]	R1 = Variant EC50/WT EC50	Max ΔF/F0
C=C(C)[C@@H]1CC=C(/C=N/O)CC1 [Perillartine, perillartine]	19.1 ± 1.2	1.1	1.45 ± 0.03
O=S(=O)(O)NC1CCCCC1 [Cyclamate, cyclamate]	1730 ± 24		
C=C1C[C@@]23CC[C@H]4[C@@](C)(CCC[C@@]4(C)C(=O)O[C@@H]4O[C@H](CO)[C@@H](O)[C@H](O[C@@H]5O[C@H](CO)[C@@H](O)[C@H](O)[C@H]5O)[C@H]4O[C@@H]4O[C@H](CO)[C@@H](O)[C@H](O)[C@H]4O)[C@@H]2CC[C@]1(O[C@@H]1O[C@H](CO)[C@@H](O)[C@H](O[C@@H]2O[C@H](CO)[C@@H](O)[C@H](O)[C@H]2O)[C@H]1O[C@@H]1O[C@H](CO)[C@@H](O)[C@H](O)[C@H]1O)C3 [Rebaudioside M, rebaudioside M]	18.2 ± 1.1	1.1	1.20 ± 0.01
OC[C@H]1O[C@H](O[C@]2(CCl)O[C@H](CCl)[C@@H](O)[C@@H]2O)[C@H](O)[C@@H](O)[C@H]1Cl [Sucralose]	82 ± 6	0.9	0.75 ± 0.02
CC1=CC(=O)NS(=O)(=O)O1 [Acesulfame K, acesulfame K]	484 ± 47	0.7	0.42 ± 0.02
brazzein (QDKCKKVYENYPVSKCQLANQCNYDCKLDKHARSGECFYDEKRNLQCICDYCEY; ends and bridges not checked; cysteine pairing not given here; UniProt P56552 1-54, looked up) [sweet-tasting protein obtained by recombinant production using the yeast Pichia pastoris]		1.2	1.2 ± 0.03
thaumatin		1.4	1.3 ± 0.02
COC(=O)[C@H](Cc1ccccc1)NC(=O)[C@H](CC(=O)O)NCCC(C)(C)C [Neotame]	0.66 ± 0.05	0.8	0.75 ± 0.02
C[C@H](CC[C@@H](O[C@@H]1O[C@H](CO[C@@H]2O[C@H](CO)[C@@H](O)[C@H](O)[C@H]2O)[C@@H](O)[C@H](O)[C@H]1O[C@@H]1O[C@H](CO)[C@@H](O)[C@H](O)[C@H]1O)C(C)(C)O)[C@H]1CC[C@@]2(C)[C@@H]3CC=C4[C@@H](CC[C@H](O[C@@H]5O[C@H](CO[C@@H]6O[C@H](CO)[C@@H](O)[C@H](O)[C@H]6O)[C@@H](O)[C@H](O)[C@H]5O)C4(C)C)[C@]3(C)[C@H](O)C[C@]12C [Mogroside V, mogroside V]	17.1 ± 0.9	1.0	1.31 ± 0.02
COc1ccc(CCC(=O)c2c(O)cc(O[C@@H]3O[C@H](CO)[C@@H](O)[C@H](O)[C@H]3O[C@@H]3O[C@@H](C)[C@H](O)[C@@H](O)[C@H]3O)cc2O)cc1O [NHDC, neohesperidin dihydrochalcone]	75.8 ± 1.2	1.0	0.79 ± 0.05
thaumatin (protein, Eight disulfides, sweet-tasting plant protein, E957) ATFEIVNRCSYTVWAAASKGDAALDAGGRQLNSGESWTINVEPGTKGGKIWARTDCYFDDSGSGICKTGDCGGLLRCKRFGRPPTTLAEFSLNQYGKDYIDISNIKGFNVPMDFSPTTRGCRGVRCAADIVGQCPAKLKAPGGGCNDACTVFQTSEYCCTTGKCGPTEYSRFFKRLCPDAFSYVLDKPTTVTCPGSSNYRVTFCPTA	10.4 ± 0.2		
